Results: patent US20240218022A1, “ANTI-VISTA MACROCYCLIC PEPTIDES AND COMPOSITIONS” (BRISTOL-MYERS SQUIBB COMPANY, priority 2022, published 2024)

Biological target: T1, mouse VISTA (mVISTA) (Mus musculus, UniProt Q9D659)
T1 construct: expressed in transfected cells; host or cells: Human embryonic kidney 293T cells
T1 sequence (Q9D659 33-308): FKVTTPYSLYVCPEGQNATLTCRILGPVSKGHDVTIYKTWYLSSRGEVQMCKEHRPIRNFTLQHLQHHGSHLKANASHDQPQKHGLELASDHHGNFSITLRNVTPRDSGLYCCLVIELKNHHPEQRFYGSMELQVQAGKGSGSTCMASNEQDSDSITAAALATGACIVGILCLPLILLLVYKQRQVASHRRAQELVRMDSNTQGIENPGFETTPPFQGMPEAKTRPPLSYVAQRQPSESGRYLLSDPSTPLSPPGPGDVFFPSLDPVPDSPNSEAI
Assay: Cell-Based Binding High-Content Assay For mVISTA (HC CBA mVISTA)
Conditions: cell-based binding high-content assay; read-out: HC CBA miPrISTA IC50
Procedure: Cell-Based Binding High-Content Assay For mVISTA
Human embryonic kidney 293T cells (293T) expressing mouse VISTA (mVISTA) were used for the assessment of compounds competing with the binding of a biotinylated peptide. Cryopreserved cells were thawed in a 37° C. water bath and incubated overnight at a 37° C./5% CO2 incubator in assay culture media DMEM (Life Technologies Inc. Cat. No. 11995-126) supplemented with 10% (v/v) FBS (Sigma, Cat. No. F4135), 1× Penicillin/Streptomycin (Life Technologies Inc. Cat. No. 15140-122). Cells were harvested, washed and resuspended in DMEM media […]. To test compounds under “no-wash” condition, cells were seeded into PDL-coated 384 well plates (Corning, Cat. No. 356663) at 4,000 cells/20 μL. After incubating the cell plates for two hours at a 37° C./5% CO2 incubator, 125 nL of test compound was added using an ECHO. Alternatively, to test compounds under “wash” condition, test compounds were added first, followed by addition of 20 μL cells at a density of 4000 cells/well. After incubation for an hour, the media was removed, followed by addition of 20 μL of fresh media ( ), and plates were then incubated for another hour. To plates either under “no wash” or “wash” condition, the biotinylated peptide was added to a final concentration of 2 nM, and plates were incubated at room temperature for 30 minutes. Fifteen (15) μL of Alexa 647 conjugated Streptavidin (Life Tech, Cat. No. S21374), suspended at 2 μg/ml in media, was added to the assay plate and incubate for 30 minutes. Cells were fixed by adding 15 μL of formaldehyde at a final concentration of 8% (w/v) (Sigma Cat. No. 252549), 20 μg/mL Hoechst (Thermo Scientific Cat. No. 62249) in PBS for 10 minutes at room temperature. The plates were washed 3 times in dPBS, sealed, and read on a CellInsight NXT High Content Screening Platform IC903000 (Thermo Scientific). The 50% effective concentration (IC50) was calculated using the four-parameter logistic formula y=A+((B−A)/(1+((C/x)^D))), where A and B denote minimal and maximal % inhibition, respectively, C is the EC50, D is hill slope and x represent compound concentration.

SMILES	IC50
CCCCCCN1CC(=O)N[C@@H](Cc2ccc(O)cc2)C(=O)N[C@@H](CCCC)C(=O)N[C@@H](CC(N)=O)C(=O)N[C@@H](CCCNC(=N)N)C(=O)N[C@@H](CC(C)C)C(=O)N[C@@H](CCCCC)C(=O)N2CCC[C@H]2C(=O)N[C@@H](C(C)C)C(=O)N[C@@H](CC(=O)O)C(=O)N[C@H](C(=O)NCCOCCOCC(=O)N[C@@H](CC(=O)O)C(=O)NCCOCCOCC(=O)NCCCCCCCCCCC(=O)O)CSCC(=O)N[C@@H](Cc2cccc(C)c2)C(=O)N[C@@H](Cc2c[nH]c3ccccc23)C(=O)N[C@@H](CC(=O)O)C1=O (stereo in doubt) [compound 2286]	25.3 nM
CCCCCCN1CC(=O)N[C@@H](Cc2ccc(O)cc2)C(=O)N[C@@H](CCCC)C(=O)N[C@@H](CC(N)=O)C(=O)N[C@@H](CCCNC(=N)N)C(=O)N(C)[C@@H](CCCC)C(=O)N[C@@H](CCCCC)C(=O)N2CCC[C@H]2C(=O)N[C@@H](C(C)C)C(=O)N[C@@H](CC(=O)O)C(=O)N[C@H](C(=O)NCCOCCOCC(=O)N[C@@H](CC(=O)O)C(=O)NCCOCCOCC(=O)NCCCCCCCCCCC(=O)O)CSCC(=O)N[C@@H](Cc2ccc3ccccc3c2)C(=O)N[C@@H](Cc2c[nH]c3ccccc23)C(=O)N[C@@H](CC(=O)O)C1=O (stereo in doubt) [compound 2290]	39.1 nM
CCCCCCN1CC(=O)N[C@@H](Cc2ccc(O)cc2)C(=O)N[C@@H](CCCC)C(=O)N[C@@H](CC(=O)O)C(=O)N[C@@H](CCCNC(=N)N)C(=O)N[C@@H](CC(C)C)C(=O)N[C@@H](CCCCC)C(=O)N2CCC[C@H]2C(=O)N[C@@H](C(C)C)C(=O)N[C@@H](CC(N)=O)C(=O)N[C@H](C(=O)NCCOCCOCC(=O)N[C@@H](CC(=O)O)C(=O)NCCOCCOCC(=O)NCCCCCCCCCCC(=O)O)CSCC(=O)N[C@@H](Cc2ccccc2)C(=O)N[C@@H](Cc2ccc(O)cc2)C(=O)N[C@@H](CC(=O)O)C1=O (stereo in doubt) [compound 2295]	33.1 nM
CCCCCCN1CC(=O)N[C@@H](Cc2ccc(O)cc2)C(=O)N[C@@H](CCCC)C(=O)N[C@@H](CC(N)=O)C(=O)N[C@@H](CCCNC(N)=O)C(=O)N[C@@H](CC(C)C)C(=O)N[C@@H](CCCCC)C(=O)N2CCC[C@H]2C(=O)N[C@@H](C(C)C)C(=O)N[C@@H](CO)C(=O)N[C@H](C(=O)NCCOCCOCC(=O)N[C@@H](CC(=O)O)C(=O)NCCOCCOCC(=O)NCCCCCCCCCCC(=O)O)CSCC(=O)N[C@@H](Cc2ccc3ccccc3c2)C(=O)N[C@@H](Cc2ccc(O)cc2)C(=O)N[C@@H](CC(=O)O)C1=O (stereo in doubt) [compound 2305]	23 nM
CCCCCCN1CC(=O)N[C@@H](Cc2ccc(O)cc2)C(=O)N[C@@H](CCCC)C(=O)N[C@@H](CC(N)=O)C(=O)N[C@@H](CCCNC(N)=O)C(=O)N2Cc3ccccc3C[C@H]2C(=O)N[C@@H](CCCCC)C(=O)N2CCC[C@H]2C(=O)N[C@@H](C(C)C)C(=O)N[C@@H](CO)C(=O)N[C@H](C(=O)NCCOCCOCC(=O)N[C@@H](CC(=O)O)C(=O)NCCOCCOCC(=O)NCCCCCCCCCCC(=O)O)CSCC(=O)N[C@@H](Cc2ccccc2)C(=O)N[C@@H](Cc2c[nH]c3ccccc23)C(=O)N[C@@H](CC(=O)O)C1=O (stereo in doubt) [compound 2311]	28.4 nM
CCCCCCN1CC(=O)N[C@@H](Cc2ccc(O)cc2)C(=O)N[C@@H](CCCC)C(=O)N[C@@H](CC(N)=O)C(=O)N[C@@H](CCCNC(=N)N)C(=O)N(C)[C@@H](CC(C)C)C(=O)N[C@@H](CCCCC)C(=O)N2CCC[C@H]2C(=O)N[C@@H](C(C)C)C(=O)N[C@@H](CO)C(=O)N[C@H](C(=O)NCCOCCOCC(=O)N[C@@H](CC(=O)O)C(=O)NCCOCCOCC(=O)NCCCCCCCCCCC(=O)O)CSCC(=O)N[C@@H](Cc2ccccc2)C(=O)N[C@@H](Cc2c[nH]c3ccccc23)C(=O)N[C@@H](CC(=O)O)C1=O (stereo in doubt) [compound 2314]	34.6 nM

Now those with a lower IC50, led by results:

IC50	SMILES
21.6 nM	CCCCCCN1CC(=O)N[C@@H](Cc2ccc(O)cc2)C(=O)N[C@@H](C(C)C)C(=O)NCC(=O)N[C@@H](CCCNC(=N)N)C(=O)N[C@@H](CC(C)C)C(=O)N[C@@H](CCCCC)C(=O)N2CCC[C@H]2C(=O)N[C@@H](C(C)C)C(=O)N[C@@H](CC(=O)O)C(=O)N[C@H](C(=O)NCCOCCOCC(=O)N[C@@H](CC(=O)O)C(=O)NCCOCCOCC(=O)NCCCCCCCCCCC(=O)O)CSCC(=O)N[C@@H](Cc2ccc3ccccc3c2)C(=O)N[C@@H](Cc2ccc(O)cc2)C(=O)N[C@@H](CC(=O)O)C1=O (stereo in doubt) [compound 2287]
21.3 nM	CCCCCCN1CC(=O)N[C@@H](Cc2ccc(O)cc2)C(=O)N[C@@H](CCCC)C(=O)N[C@@H](CC(N)=O)C(=O)N[C@@H](CCCNC(=N)N)C(=O)N(C)[C@@H](CCCC)C(=O)N[C@@H](CCCCC)C(=O)N2CCC[C@H]2C(=O)N[C@@H](C(C)C)C(=O)N[C@@H](CO)C(=O)N[C@H](C(=O)NCCOCCOCC(=O)N[C@@H](CC(=O)O)C(=O)NCCOCCOCC(=O)NCCCCCCCCCCC(=O)O)CSCC(=O)N[C@@H](Cc2ccccc2)C(=O)N[C@@H](Cc2c[nH]c3ccccc23)C(=O)N[C@@H](CC(=O)O)C1=O (stereo in doubt) [compound 2318]
18.3 nM	CCCCCCN1CC(=O)N[C@@H](Cc2ccc(O)cc2)C(=O)N[C@@H](CCCC)C(=O)N[C@@H](CC(N)=O)C(=O)N[C@@H](CCCNC(N)=O)C(=O)N(C)[C@@H](CCCC)C(=O)N[C@@H](CCCCC)C(=O)N2CCC[C@H]2C(=O)N[C@@H](C(C)C)C(=O)N[C@@H](CO)C(=O)N[C@H](C(=O)NCCOCCOCC(=O)N[C@@H](CC(=O)O)C(=O)NCCOCCOCC(=O)NCCCCCCCCCCC(=O)O)CSCC(=O)N[C@@H](Cc2ccccc2)C(=O)N[C@@H](Cc2c[nH]c3ccccc23)C(=O)N[C@@H](CC(=O)O)C1=O (stereo in doubt) [compound 2317]
17.9 nM	CCCCCCN1CC(=O)N[C@@H](Cc2ccc(O)cc2)C(=O)N[C@@H](CCCC)C(=O)NCC(=O)N[C@@H](CCCNC(N)=O)C(=O)N[C@@H](CC(C)C)C(=O)N[C@@H](CCCCC)C(=O)N2CCC[C@H]2C(=O)N[C@@H](C(C)C)C(=O)N[C@@H](CC(=O)O)C(=O)N[C@H](C(=O)NCCOCCOCC(=O)N[C@@H](CC(=O)O)C(=O)NCCOCCOCC(=O)NCCCCCCCCCCC(=O)O)CSCC(=O)N[C@@H](Cc2cccc(C)c2)C(=O)N[C@@H](Cc2ccc(O)cc2)C(=O)N[C@@H](CC(=O)O)C1=O (stereo in doubt) [compound 2309]
17.4 nM	CCCCCCN1CC(=O)N[C@@H](Cc2ccc(O)cc2)C(=O)N[C@@H](CC(C)C)C(=O)N[C@@H](CC(N)=O)C(=O)N[C@@H](CCCNC(=N)N)C(=O)N[C@@H](CC(C)C)C(=O)N[C@@H](CCCCC)C(=O)N2CCC[C@H]2C(=O)N[C@@H](C(C)C)C(=O)N[C@@H](C(C)C)C(=O)N[C@H](C(=O)NCCOCCOCC(=O)N[C@@H](CC(=O)O)C(=O)NCCOCCOCC(=O)NCCCCCCCCCCC(=O)O)CSCC(=O)N[C@@H](Cc2ccccc2)C(=O)N[C@@H](Cc2ccc(O)cc2)C(=O)N[C@@H](CC(=O)O)C1=O (stereo in doubt) [compound 2291]
15.7 nM	CCCCCCN1CC(=O)N[C@@H](Cc2ccc(O)cc2)C(=O)N[C@@H](CC(C)C)C(=O)N[C@@H](CC(N)=O)C(=O)N[C@@H](CCCNC(=N)N)C(=O)N[C@@H](CC(C)C)C(=O)N[C@@H](CCCCC)C(=O)N2CCC[C@H]2C(=O)N[C@@H](C(C)C)C(=O)N[C@@H](C(C)C)C(=O)N[C@H](C(=O)NCCOCCOCC(=O)N[C@@H](CC(=O)O)C(=O)NCCOCCOCC(=O)NCCCCCCCCCCC(=O)O)CSCC(=O)N[C@@H](Cc2ccccc2)C(=O)N[C@@H](Cc2cccc(C)c2)C(=O)N[C@@H](CC(=O)O)C1=O (stereo in doubt) [compound 2289]
8.6 nM	CCCCCCN1CC(=O)N[C@@H](Cc2ccc(O)cc2)C(=O)N[C@@H](CCCC)C(=O)N[C@@H](CC(N)=O)C(=O)N[C@@H](CCCNC(=N)N)C(=O)N[C@@H](CC(C)C)C(=O)N[C@@H](CCCCC)C(=O)N2CCC[C@H]2C(=O)N[C@@H](C(C)C)C(=O)N[C@@H](CO)C(=O)N[C@H](C(=O)NCCOCCOCC(=O)N[C@@H](CC(=O)O)C(=O)NCCOCCOCC(=O)NCCCCCCCCCCC(=O)O)CSCC(=O)N[C@@H](Cc2ccc3ccccc3c2)C(=O)N[C@@H](Cc2ccc(O)cc2)C(=O)N[C@@H](CC(=O)O)C1=O (stereo in doubt) [compound 2288]
